# Results: patent publication US20220193047A1, “METHODS OF ENHANCING RADIOTHERAPY USING FERROPTOSIS INDUCERS AS RADIOSENSITIZERS” (THE TRUSTEES OF COLUMBIA UNIVERSITY IN THE CITY OF NEW YORK, priority 2019, published 2022)
# Tests used:
# [1] = test system: HT-1080 xenograft tumors; assay: HT-1080 tumor xenograft study in mice; details: 40 mg/kg IKE i.p. daily for 14 days
# Experimental: The injections were repeated daily for 14 days. […] For the sorafenib experiment, the formulation used was 40 mg/kg sorafenib in 5% DMSO, 20% ethanol in water containing 30% w/v cyclodextrin. […] Tumor size was measured daily using calipers and mouse weight was measured daily.
# The efficacy of the combined treatment regimen of radiation and ferroptosis inducer was evaluated in an in vivo tumor model. […] Athymic nude mice were implanted with subcutaneous HT-1080 fibrosarcoma cells to form xenograft tumors.
# [2] = test system: reduced glutathione (GSH) in HT-1080 cells; assay: Reduced glutathione measurement in cells; type: cell-based; details: HT-1080, irradiated cells (2 or 6 Gy, 24 hours) co-treated with 2 μM IKE
# Experimental: Cystine taken up by system xc^− is reduced to cysteine, a building block in the biosynthesis of glutathione. […] Using a fluorometric GSH probe, we observed that treatment with 2 or 6 Gy radiation for 24 hours depleted GSH in a dose-dependent manner in HT-1080 cells (FIG. 2E). […] Indeed, the decrease in colony formation of HT-1080 cells following 2 or 4 Gy radiation was rescued by either glutathione methyl ester or N-acetylcysteine, which is a biological precursor to glutathione (FIG. 9).
# [3] = test system: TM00219 patient-derived xenograft tumors; assay: Patient-derived xenograft study in mice (TM00219 lung adenocarcinoma); type: in vivo; details: 40 mg/kg i.p. daily for 14 days, NSG mice
# Experimental: The experiment was conducted according to the same protocol as the HT-1080 tumor xenograft study, with the exception that a single dose of radiation (sham or 6 Gy) was delivered to the tumor on day 1 of the experiment.
# Finally, the effect of ferroptosis-inducing system xc^− inhibitors, in combination with radiation, was tested on a patient-derived xenograft (PDX) model of lung adenocarcinoma, which is another type of cancer commonly treated with radiation therapy. NSG mice engrafted with a human lung adenocarcinoma tumor (TM00219) were evaluated.
# [4] = test system: MDA in HT-1080 xenograft tumor tissue; assay: MDA immunohistochemistry on paraffin-embedded tumor sections; type: in vivo, mice; details: tumors resected at day 14
# Experimental: Tumor tissue was fixed in 4% paraformaldehyde (PFA) for 24 h at 4° C. followed by washing three times with PBS. The samples were fixed in paraffin. Six series of […] sections were obtained with a sliding microtome. The serial sections were then mounted on gelatin-coated slide. The paraffin-embedded tissue sections were deparaffinized with xylene three times, 5 min each, followed by rehydrating in 100%, 90%, 70%, and 50% ethanol, two washes 5 min each, then rinsed with distilled water. Antigen retrieval was performed in sodium citrate buffer, pH 6.0, 95-100° C. for 10 min. Sections were then rinsed in PBST, 2 min each. A hydrophobic barrier pen was used to draw a circle on each slide. The slides were permeabilized with PBS/0.4% Triton X-100 twice before non-specific-binding blocking by incubating the sections with 10% goat serum (ThermoFisher 50197Z) for 30 minutes at room temperature. […] All images were captured on a Zeiss LSM 700 confocal microscope with constant laser intensity for all analyzed samples. The intensity above threshold of the fluorescent signal of the bound antibodies was analyzed using NIH ImageJ software.
# Next, malondialdehyde (MDA) levels, as a biomarker for ferroptosis, were measured in tumor tissue using immunohistochemistry on fixed and paraffin-embedded tumor samples resected at day 14 post-treatment (FIG. 6B).
# [5] = test system: lipid species in HT-1080 cells; assay: Mass spectrometry-based untargeted lipidomics; type: cell-based
# Experimental: Homogenized samples were transferred to fresh glass tubes containing 850 mL of cold methyl-tertbutyl ether (MTBE) and vortex-mixed for 30 sec. To enhance extraction efficiency of lipids, the samples were incubated for one hour at 4° C. on an orbital shaker. Afterwards, 200 mL of cold water was added to each sample, and incubated for 20 min on ice before centrifugation at 3,000 rpm for 20 min at 4° C. The organic layer was collected followed by drying under a gentle stream of nitrogen gas on ice and stored at −80° C. until UPLC-MS analysis. The protein pellet was used to measure protein concentration for normalization using Bio-Rad protein assay. The samples were re-constituted in a solution containing 2-propanol/acetonitrile/water (4:3:1, v/v/v) containing mixture of internal standard (PLASH® LIPIDOMIX® Mass Spec Standard, Avanti Polar Lipids, INC.) for further UPLC-MS analysis. A quality control (QC) sample was prepared by combining 40 mL of each sample to assess the reproducibility of the features through the runs.
# Chromatographic separation of extracted lipids was carried out at 55° C. on ACQUITY UPLC CSH C18 Column, (130 Å, 1.7 μm, 2.1 mm×100 mm) over a 20-min gradient elution. Mobile phase A consisted of ACN/water (60:40, v/v) and mobile phase B was 2-propanol/ACN/water (85:10:5, v/v/v) both containing 10 mM ammonium acetate and 0.1% acetic acid. […]
# [6] = test system: HT-1080 cells; assay: Cell Titer Glo cell viability assay with radiation; type: cell-based; details: HT-1080, 4 Gy radiation for 24 h
# Experimental: HT-1080 cells were plated at 1,000 cells per well in white 96-well plates (100 uL per well) in technical duplicates. The cells were then treated with vehicle (DMSO), Ferrostatin-1, DFO, Z-VAD-FMK or Necrostatin-1S and incubated overnight. […] After another 24 h, 100 uL of 50% Cell Titer Glo (Promega) 50% cell culture medium was added to each well and incubated at room temperature with shaking for 15 min. Luminescence was measured using a Victor X5 plate reader (PerkinElmer). Experiments were performed three independent times with different passages for each cell line.
Structure (SMILES),"Tumor volume, IKE plus radiation ([1]; 6 Gy on days 2 and 4)","Tumor volume, IKE alone ([1]; athymic nude mice)",Levels of reduced glutathione [2],"Tumor growth, combination with radiation vs all other groups ([3]; 6 Gy on day one)","Tumor growth, drug alone vs vehicle only [3]","MDA signal in tumors, IKE and radiation vs vehicle [4]","MDA signal in tumors, IKE only vs vehicle [4]","Abundance of 17 lipid species (FA 16:1, lysophospholipids, diacylglycerols) ([5]; HT-1080, 5 μM IKE for 12 h)","Abundance of 17 lipid species (FA 16:1, lysophospholipids, diacylglycerols) ([5]; HT-1080, 5 μM IKE for 12 h plus 6 Gy radiation for 24 h)",Cell viability after radiation (ATP-based luciferase assay) [6]
"CC(C)Oc1ccc(C(=O)Cn2ccnc2)cc1-n1c(CN2CCN(C(=O)COc3ccc(Cl)cc3)CC2)nc2ccccc2c1=O [IKE, imidazole ketone erastin]",enhanced the effects of radiation in reducing tumor growth,not strongly effective,further decreased,significant tumor growth inhibition,significant tumor control,Significantly elevated MDA signal,No significant differences,increased significantly,even larger increases,
CCOC(=O)c1ccc(NC2CCCCC2)c(N)c1 [ferrostatin-1],,,,,,,,,,rescued from death
